Data as given in patent US5952473A, “Reagent and kit for determining isoprenylating activity and inhibition thereof” (priority 1993, dated 1999).

Biological target: T1, protein:farnesyl transferase (Oryctolagus cuniculus, UniProt G1SFC8+G1T7D9)
T1 construct: immobilised CAAX peptide A and 3H-FPP as substrates
Assay: Inhibition of protein:farnesyl transferase activity in rabbit reticulocyte lysate (pepAsep/pepBsep, 3H-FPP)
Type: biochemical
Conditions: read-out: IC50 -value, 80 pmol peptide on Sepharose beads, 0.7 μM 3H-FPP, 30 min, 37° C., pepAsep minus pepBsep dpm
Protocol: Commercially available rabbit reticulocyte lysate contains enzymes necessary for protein-isoprenylation, such as protein:farnesyl transferase activity (Vorburger, K., Kitten, G. T. and Nigg, E. G., EMBO J. 8 (1989) 4007-4013) and protein:geranylgeranyl transferase (Maltese, W. A. and Robishaw, J. D., J. Biol. Chem. 265 (1990) 18071-18074). Using pepAsep (example I) as substrate and pepBsep (example I) as control the assay of protein:farnesyl transferase activity was performed as follows: In 25 μl of a mixture containing 5 μl of pepAsep or pepBsep (both containing an equal quantity of peptide), 13 μl rabbit reticulocyte lysate (promega), 0.5 mM MgCl2, 1 mM DTT, 50 mM Tris-HCl (pH 7.4) and [^3 H]-farnesyl pyrophosphate (^3 H-FPP; concentration as indicated in the figures; specific radioactivity 15 Ci/mmol; ARC, USA) the incubation was performed at 37° C. for 30 min with continuous shaking. […] The radioactivity bound to the Sepharose was measured in a Packaged Tricarb liquid scintillation counter. […]
80 pmol of pepAsep and pepBsep/5 μl Sepharose were incubated for 30 minutes in the presence of 0.7 μM of [^3 H]-FPP and the indicated concentrations of the farnesyl pyrophosphate analogues FPPA1 and FPPA2 as mentioned in Example IV. The farnesylation activity was calculated as ^3 H-dpm bound to pepAsep minus the pepBsep-bound-dpm and expressed as percentage of control (without inhibitor).

SMILES: CC(C)=CCCC(C)=CCCC(C)=CCP(=O)(O)OP(=O)(O)O [FPPA2, farnesyl phosphonophosphate]
- IC50: 290 ± 20 nM
